Measurements published in the NIST ThermoML archive (doi:10.1016/j.jct.2016.10.034).

Assay: xn = mol fraction of the nth substance listed
Conditions: 100 kPa, Liquid; for viscosity: Falling or rolling sphere viscometry; for mass density: Vibrating tube method

CC(=O)[O-].CC[N+]1(C)CCCC1 [1-ethyl-1-methylpyrrolidinium acetate] + O
Conditions	mass density [kg/m3]	viscosity [mPa·s]
298.15 K, x1 = 0.1008	1046.6	6.95
298.15 K, x1 = 0.2083	1066.7	16.9
298.15 K, x1 = 0.3171	1070.7	29
298.15 K, x1 = 0.4126	1070.8	41.1
298.15 K, x1 = 0.481	1070.2	50.9
298.15 K, x1 = 0.5857	1069.2	69.3
298.15 K, x1 = 0.6728	1068.1	88.3
298.15 K, x1 = 0.766	1066.9	116
298.15 K, x1 = 0.8963	1065.4	173
303.15 K, x1 = 0.1008	1043.6	5.96
303.15 K, x1 = 0.2083	1063.6	14.2
303.15 K, x1 = 0.3171	1067.6	24.2
303.15 K, x1 = 0.4126	1067.8	34.5
303.15 K, x1 = 0.481	1067.2	42.8
303.15 K, x1 = 0.5857	1066.3	57.2
303.15 K, x1 = 0.6728	1065.3	71.4
303.15 K, x1 = 0.766	1064	91.3
303.15 K, x1 = 0.8963	1062.5	134
308.15 K, x1 = 0.1008	1040.7	5.32
308.15 K, x1 = 0.2083	1060.3	11.9
308.15 K, x1 = 0.3171	1064.5	19.7
308.15 K, x1 = 0.4126	1064.8	28
308.15 K, x1 = 0.481	1064.2	35.1
308.15 K, x1 = 0.5857	1063.1	46.7
308.15 K, x1 = 0.6728	1062.2	57.6
308.15 K, x1 = 0.766	1060.7	74.2
308.15 K, x1 = 0.8963	1059.4	107
313.15 K, x1 = 0.1008	1037.7	4.77
313.15 K, x1 = 0.2083	1057.1	10.6
313.15 K, x1 = 0.3171	1061.4	16.9
313.15 K, x1 = 0.4126	1061.8	23.5
313.15 K, x1 = 0.481	1061.3	28.9
313.15 K, x1 = 0.5857	1060.4	38.7
313.15 K, x1 = 0.6728	1059.4	48.5
313.15 K, x1 = 0.766	1057.9	62.8
313.15 K, x1 = 0.8963	1056.6	88.5
318.15 K, x1 = 0.1008	1034.6	4.3
318.15 K, x1 = 0.2083	1053.8	9.09
318.15 K, x1 = 0.3171	1058.2	14
318.15 K, x1 = 0.4126	1058.7	19.7
318.15 K, x1 = 0.481	1058.3	23.6
318.15 K, x1 = 0.5857	1057.5	30.3
318.15 K, x1 = 0.6728	1056.6	38.4
318.15 K, x1 = 0.766	1055	51.4
318.15 K, x1 = 0.8963	1053.7	70.8
323.15 K, x1 = 0.1008	1031.5	3.87
323.15 K, x1 = 0.2083	1050.5	7.91
323.15 K, x1 = 0.3171	1055.1	11.6
323.15 K, x1 = 0.4126	1055.7	16
323.15 K, x1 = 0.481	1055.3	19.8
323.15 K, x1 = 0.5857	1054.5	26.2
323.15 K, x1 = 0.6728	1053.6	32.7
323.15 K, x1 = 0.766	1052.2	42.5
323.15 K, x1 = 0.8963	1050.9	58
328.15 K, x1 = 0.1008	1028.3	3.523
328.15 K, x1 = 0.2083	1047.2	6.81
328.15 K, x1 = 0.3171	1051.9	10
328.15 K, x1 = 0.4126	1052.6	13.5
328.15 K, x1 = 0.481	1052.3	15.8
328.15 K, x1 = 0.5857	1051.6	21.2
328.15 K, x1 = 0.6728	1050.7	28
328.15 K, x1 = 0.766	1049.3	35.2
328.15 K, x1 = 0.8963	1048	48
333.15 K, x1 = 0.1008	1025.1	3.21
333.15 K, x1 = 0.2083	1043.8	6.14
333.15 K, x1 = 0.3171	1048.7	8.67
333.15 K, x1 = 0.4126	1049.5	11.5
333.15 K, x1 = 0.481	1049.3	13.5
333.15 K, x1 = 0.5857	1048.5	18.1
333.15 K, x1 = 0.6728	1047.7	23.2
333.15 K, x1 = 0.766	1046.2	29.1
333.15 K, x1 = 0.8963	1045	39.5
338.15 K, x1 = 0.1008	1021.8	2.94
338.15 K, x1 = 0.2083	1040.5	5.49
338.15 K, x1 = 0.3171	1045.5	7.52
338.15 K, x1 = 0.4126	1046.4	9.88
338.15 K, x1 = 0.481	1046.2	11.6
338.15 K, x1 = 0.5857	1045.6	15.4
338.15 K, x1 = 0.6728	1044.9	19.8
338.15 K, x1 = 0.766	1043.5	24.6
338.15 K, x1 = 0.8963	1042.3	32.6
343.15 K, x1 = 0.1008	1018.5	2.65
343.15 K, x1 = 0.2083	1037.1	4.78
343.15 K, x1 = 0.3171	1042.2	6.72
343.15 K, x1 = 0.4126	1043.3	8.58
343.15 K, x1 = 0.481	1043.2	10.1
343.15 K, x1 = 0.5857	1042.6	13.1
343.15 K, x1 = 0.6728	1041.9	16.9
343.15 K, x1 = 0.766	1040.5	20.9
343.15 K, x1 = 0.8963	1039.3	27.2
348.15 K, x1 = 0.1008	1015.2	2.46
348.15 K, x1 = 0.2083	1033.6	4.38
348.15 K, x1 = 0.3171	1039	5.79
348.15 K, x1 = 0.4126	1040.1	7.52
348.15 K, x1 = 0.481	1040.1	8.82
348.15 K, x1 = 0.5857	1039.7	11.4
348.15 K, x1 = 0.6728	1039	14.6
348.15 K, x1 = 0.766	1037.6	17.3
348.15 K, x1 = 0.8963	1036.7	22.4
